Tests used:
[1] = system: T-Rex 293 cell line SC3 cells lacking increased expression of androgen receptor protein; assay: Cellular growth inhibition, T-Rex 293 SC3 cells without doxycycline (no increased androgen receptor expression), CellTiter-Glo; assay type: cell-based; conditions: T-Rex 293 SC3 cells not exposed to doxycycline (no increased androgen receptor expression), 72 hours
How it was run: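 Growth inhibition is measured in an inducible AR-expressing T-Rex 293 clone, SC3, cultured with or without 10 ng/mL doxycycline in hormone-depleted medium. Test compounds are applied for 72 hours. GI50 values derive from CellTiter-Glo 2.0 signal fitted by four-parameter regression.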

[2] = system: T-Rex 293 cell line SC cells having increased expression of progesterone receptor isoform B protein; assay: Cellular growth inhibition assay, T-Rex 293 SC cells exposed to doxycycline (increased progesterone receptor isoform B expression), CellTiter-Glo; assay type: cell-based; conditions: T-Rex 293 SC cells with 10 ng/mL doxycycline (increased PR isoform B), 72 hours
Description: The SC cells were seeded on poly-D-lysine coated, black clear-bottom 384-well plates at 2500/well, in 25 μL Phenol Red Free Dulbecco's Modified Eagle Medium (DMEM) supplemented with 10% w/w charcoal-dextran treated fetal bovine serum (FBS) and 1% w/w pen-strep, with or without 10 ng/mL doxycycline. Pen-Strep is a commercially available mixture of penicillin G and streptomycin, which is used in mammalian cell culture media to prevent bacterial contamination. Phenol Red Free Dulbecco's Modified Eagle Medium (DMEM) supplemented with 10% w/w charcoal-dextran treated fetal bovine serum (FBS) and 1% w/w pen-strep, with or without 10 ng/mL doxycycline is herein referred to as Treatment Medium. Following seeding of cells in the plates, the plates were spun at 300×g for 30 seconds, then equilibrated to room temperature for 30 minutes, and then deposited in a humidified tissue culture incubator maintained at 37° C. with 5% CO2.
At 24 hours after seeding of the cells, dilutions of test compound were prepared in DMSO and dissolved in Treatment Medium, to achieve a final DMSO concentration of 0.5% w/w, thereby providing the Test Compound Solution. A 25 μL aliquot of the Test Compound Solution was added to cells in the well plates. An equal volume of a solution containing DMSO and Treatment Medium was used as a negative control. Following treatment of cells with Test Compound Solution or said equal volume of a solution containing DMSO and Treatment Medium, the plates were spun at 300×g for 30 seconds, and then left in an incubator for 72 hours.
At the end of the treatment duration, cell viability was quantified with CellTiter-Glo 2.0 reagent (Promega Cat #G9243). For this purpose, plates were equilibrated to room temperature for 30 minutes, and then 25 μL of CellTiter-Glo 2.0 reagent was added to cells in the plate wells. Plates were then agitated on a shaker for two minutes at 500 rpm and subsequently incubated at room temperature for 10 minutes. Following incubation, the plates were spun at 3000×g for 30 seconds, then sealed with an optical adhesive cover, and luminescence readings were measured with an EnVision Plate Reader (Perkin Elmer).
Data was normalized using zero luminescence for baseline. A four-parameter non-linear regression curve fit was applied to dose-response data in GraphPad Prism data analysis software to determine the half-maximal growth inhibitory concentration (GI50) for each test compound.

Row | SMILES | GI50 [1] [nM] | GI50 [2] [nM]
1 | Cn1cc(-c2cc(C(C)(C)O)ccc2Oc2cccc(N3CC(CC4CCN(c5ncc(C(=O)N[C@H]6C(C)(C)[C@H](Oc7ccc(C#N)c(Cl)c7)C6(C)C)cn5)CC4)C3)c2F)c2cc[nH]c2c1=O [Compound I-196] | > 3000 | < 500
2 | Cn1cc(-c2cc(C(C)(C)O)ccc2Oc2ccc(CC3CCN(c4ncc(C(=O)N[C@H]5C(C)(C)[C@H](Oc6ccc(C#N)c(Cl)c6)C5(C)C)cn4)CC3)cc2)c2cc[nH]c2c1=O [Compound I-201] | 500 to 1500 | < 500
3 | CCS(=O)(=O)Nc1ccc(Oc2cccc(COC3CCN(c4ncc(C(=O)N[C@H]5C(C)(C)[C@H](Oc6ccc(C#N)c(Cl)c6)C5(C)C)cn4)CC3)c2)c(-c2cn(C)c(=O)c3[nH]ccc23)c1 [Compound I-18, N-((1r, 3r)-3-(3-chloro-4-cyanophenoxy)-2,2,4,4-tetramethylcyclobutyl)-2-(4-((3-(4-(ethylsulfonamido)-2-(6-methyl-7-oxo-6,7-dihydro-1H-pyrrolo[2,3-c]pyridin-4-yl)phenoxy)benzyl)oxy)piperidin-1-yl)pyrimidine-5-carboxamide] | < 500 | < 500
4 | Cn1cc(-c2cc(C(C)(C)O)ccc2Oc2ccc(N3CC(CC4CCN(c5ncc(C(=O)N[C@H]6C(C)(C)[C@H](Oc7ccc(C#N)c(Cl)c7)C6(C)C)cn5)CC4)C3)cc2)c2cc[nH]c2c1=O [Compound I-232] | > 3000 | < 500
5 | CCS(=O)(=O)Nc1ccc(Oc2cccc(OC3CC(C4CCN(c5ncc(C(=O)N[C@H]6C(C)(C)[C@H](Oc7ccc(C#N)c(Cl)c7)C6(C)C)cn5)CC4)C3)c2)c(-c2cn(C)c(=O)c3[nH]ccc23)c1 (some centres unmarked) [Compound I-104] | 500 to 1500 | < 500
6 | CCS(=O)(=O)Nc1ccc(Oc2ccc(F)c(OCCOC3CCN(c4ncc(C(=O)N[C@H]5C(C)(C)[C@H](Oc6ccc(C#N)c(Cl)c6)C5(C)C)cn4)CC3)c2F)c(-c2cn(C)c(=O)c3[nH]ccc23)c1 [Compound I-65] | < 500 | < 500
7 | CCS(=O)(=O)Nc1ccc(Oc2cccc(N3CCN(C4CN(c5ncc(C(=O)N[C@H]6C(C)(C)[C@H](Oc7ccc(C#N)c(Cl)c7)C6(C)C)cn5)C4)CC3)c2)c(-c2cn(C)c(=O)c3[nH]ccc23)c1 [Compound I-126] | > 3000 | –
8 | CN(c1ccc(Oc2cccc(N3CC(N4CCN(c5ncc(C(=O)N[C@H]6C(C)(C)[C@H](Oc7ccc(C#N)c(Cl)c7)C6(C)C)cn5)CC4)C3)c2F)c(-c2cn(C)c(=O)c3[nH]ccc23)c1)S(=O)(=O)C1CC1 [Compound I-91] | > 3000 | –
9 | CCS(=O)(=O)Nc1ccc(Oc2cccc(CCOC3CCN(c4ncc(C(=O)N[C@H]5C(C)(C)[C@H](Oc6ccc(C#N)c(Cl)c6)C5(C)C)cn4)CC3)c2)c(-c2cn(C)c(=O)c3[nH]ccc23)c1 [Compound I-19] | < 500 | –
10 | CCS(=O)(=O)Nc1ccc(Oc2cccc(N(C)C3CN(CC4CCN(c5ncc(C(=O)NC6C(C)(C)C(Oc7ccc(C#N)c(Cl)c7)C6(C)C)cn5)CC4)C3)c2)c(-c2cn(C)c(=O)c3[nH]ccc23)c1 (centres unmarked) [Compound I-39] | < 500 | –
11 | Cn1cc(-c2cc(C(C)(C)O)ccc2Oc2cccc(OCCOC3CCN(c4ncc(C(=O)N[C@H]5C(C)(C)[C@H](Oc6ccc(C#N)c(Cl)c6)C5(C)C)cn4)CC3)c2)c2cc[nH]c2c1=O [Compound I-56, N-((1r, 3r)-3-(3-chloro-4-cyanophenoxy)-2,2,4,4-tetramethylcyclobutyl)-2-(4-(2-(3-(4-(2-hydroxypropan-2-yl)-2-(6-methyl-7-oxo-6,7-dihydro-1H-pyrrolo[2,3-c]pyridin-4-yl)phenoxy)phenoxy)ethoxy)piperidin-1-yl)pyrimidine-5-carboxamide] | < 500 | –
12 | CCS(=O)(=O)Nc1ccc(Oc2cccc(OCCOC3CCN(c4ccc(C(=O)N[C@H]5C(C)(C)[C@H](Oc6ccc(C#N)c(Cl)c6)C5(C)C)nn4)CC3)c2)c(-c2cn(C)c(=O)c3[nH]ccc23)c1 [Compound I-11] | < 500 | –
13 | Cn1cc(-c2ccccc2Oc2cccc(OCCOC3CCN(c4ncc(C(=O)N[C@H]5C(C)(C)[C@H](Oc6ccc(C#N)c(Cl)c6)C5(C)C)cn4)CC3)c2)c2ccn(C)c2c1=O [Compound I-137] | < 500 | –
14 | Cn1cc(-c2cc(N)ccc2Oc2cccc(OCCC3CCN(c4ncc(C(=O)N[C@H]5C(C)(C)[C@H](Oc6ccc(C#N)c(Cl)c6)C5(C)C)cn4)CC3)c2)c2cc[nH]c2c1=O [Compound I-101] | > 3000 | –
15 | Cn1cc(-c2cc(C(C)(C)O)ccc2Oc2cccc(N3CC(N4CCN(c5ncc(C(=O)N[C@H]6C(C)(C)[C@H](Oc7ccc(C#N)c(Cl)c7)C6(C)C)cn5)CC4)C3)c2)c2cc[nH]c2c1=O [Compound I-105] | < 500 | –
16 | Cn1cc(-c2cc(N)ccc2Oc2cccc(N3CC(N4CCN(c5ncc(C(=O)N[C@H]6C(C)(C)[C@H](Oc7ccc(C#N)c(Cl)c7)C6(C)C)cn5)CC4)C3)c2F)c2cc[nH]c2c1=O [Compound I-93] | > 3000 | –
17 | Cn1cc(-c2cc(C(C)(C)O)ccc2Oc2cccc(CCOC3CCN(c4ncc(C(=O)N[C@H]5C(C)(C)[C@H](Oc6ccc(C#N)c(Cl)c6)C5(C)C)cn4)CC3)c2F)c2cc[nH]c2c1=O [Compound I-147] | < 500 | –
18 | Cn1cc(-c2ccccc2Oc2cccc(OCCOC3CCN(c4ncc(C(=O)N[C@H]5C(C)(C)[C@H](Oc6ccc(C#N)c(Cl)c6)C5(C)C)cn4)CC3)c2)c2cc[nH]c2c1=O [Compound I-61, N-((1r, 3r)-3-(3-chloro-4-cyanophenoxy)-2,2,4,4-tetramethylcyclobutyl)-2-(4-(2-(3-(2-(6-methyl-7-oxo-6,7-dihydro-1H-pyrrolo[2,3-c]pyridin-4-yl)phenoxy)phenoxy)ethoxy)piperidin-1-yl)pyrimidine-5-carboxamide] | 1500 to 3000 | –
19 | CCS(=O)(=O)Nc1ccc(Oc2cccc(CCN3CC4CN(c5ncc(C(=O)N[C@H]6C(C)(C)[C@H](Oc7ccc(C#N)c(Cl)c7)C6(C)C)cn5)CC4C3)c2)c(-c2cn(C)c(=O)c3[nH]ccc23)c1 (some centres unmarked) [Compound I-119] | < 500 | –
20 | CC(C)c1ccc(Oc2cccc(OCCN3CCN(c4ncc(C(=O)NC5C(C)(C)C(Oc6ccc(C#N)c(Cl)c6)C5(C)C)cn4)CC3)c2)c(-c2cn(C)c(=O)c3[nH]ccc23)c1 (centres unmarked) [Compound I-107, N-[3-(3-chloro-4-cyano-phenoxy)-2,2,4,4-tetramethyl-cyclobutyl]-2-[4-[2-[3-[4-isopropyl-2-(6-methyl-7-oxo-1H-pyrrolo[2,3-c]pyridin-4-yl)phenoxy]phenoxy]ethyl]piperazin-1-yl]pyrimidine-5-carboxamide] | > 3000 | –
21 | Cc1ccc(CCCOC2CCN(c3ncc(C(=O)N[C@H]4C(C)(C)[C@H](Oc5ccc(C#N)c(Cl)c5)C4(C)C)cn3)CC2)cc1Oc1ccc(C(C)(C)O)cc1-c1cn(C)c(=O)c2[nH]ccc12 [Compound I-192] | 500 to 1500 | –
22 | CCS(=O)(=O)Nc1ccc(Oc2cccc(N3CC(OC4CCN(c5ncc(C(=O)N[C@H]6C(C)(C)[C@H](Oc7ccc(C#N)c(Cl)c7)C6(C)C)cn5)CC4)C3)c2)c(-c2cn(C)c(=O)c3[nH]ccc23)c1 [Compound I-80] | < 500 | –
23 | Cn1cc(-c2cc(C(C)(C)O)ccc2Oc2cccc(OCCN3CCN(c4ncc(C(=O)N[C@H]5C(C)(C)[C@H](Oc6ccc(C#N)c(Cl)c6)C5(C)C)cn4)CC3)c2)c2cc[nH]c2c1=O [Compound I-96] | < 500 | –
